Measurements taken from patent publication US20080293772A1, “SALTS OF PICOTAMIDE” (priority 2007, published 2008).
Counter-ions that a name gives are not always drawn. Like-named read-outs stand apart in the source and are kept apart here.

Columns and labels:
[1] = Picotamide salt stability, degradation determined by HPLC
Description: If a spontaneous crystallization occurs after the salt formation, the solid is isolated by filtration.
Column: Phenomenex Hypersil C18-BDS, 4.6×150 mm, 5 μm, flow 1 ml/min, 25° C., detection at 254 nm. Ammonium acetate buffer 10 mM, pH 9, containing 15% methanol. After 17 min, the percentage of methanol is increased to 80%. The sample is dissolved in methanol/water 1:1.
Salts were formed in THF.

[2] = Picotamide stability under acidic conditions (HPLC content); type: physicochemical; details: hydrochloric acid 1 M, three days
Description: The sample is dissolved in methanol/water 1:1.
Picotamide is dissolved in hydrochloric acid 1 M and stored at room temperature and 50° C. for three days.

[3] = man, after oral administration; cited from earlier work

Degradation [1] | Compound | Degradation ([1]; salts formed in THF, HPLC) | also measured
35% | Br [hydrobromide] |  | 
0.0% | COc1ccc(C(=O)NCc2cccnc2)cc1C(=O)NCc1cccnc1 [hydrochloride (anhydrous)] |  | 
0.6% | COc1ccc(C(=O)NCc2cccnc2)cc1C(=O)NCc1cccnc1 [hydrochloride] |  | 
0.1% | O=S(=O)(O)O [sulfate] |  | 

The remaining lines, values behind:

Compound | Degradation [1] | Degradation ([1]; salts formed in THF, HPLC) | also measured
CC(=O)O [Acetate] | 0.6% |  | 
COc1ccc(C(=O)NCc2cccnc2)cc1C(=O)NCc1cccnc1 [Picotamide, N,N′-bis-(3-picolyl)-4-methoxyisophthalamide] |  |  | picotamide content ([2]; 50° C.): 98.1%; picotamide content ([2]; room temperature): 99.2%
COc1ccc(C(=O)NCc2cccnc2)cc1C(=O)NCc1cccnc1 [anhydrous picotamide] |  |  | time needed to reach the maximum inhibitory effect [3]: 8 h
citrate |  | 0.2% | 
fumarate |  | 6.7% | 
maleate |  | 11.5% | 
oxalate |  | 0.4% | 
tartrate [reference compound] |  | 0.1% | 
